Measured values as given in US20050096354A1 (published 2005).

Row | melting point | SMILES
1 | 243 to 244 °C | Cc1ccc(-c2c(C#N)nn(-c3c(Cl)cc(C(F)(F)F)cc3Cl)c2N)cc1
2 | 198 to 199 °C | N#Cc1nn(-c2c(Cl)cc(C(F)(F)F)cc2Cl)c(N)c1-c1ccccc1
3 | 212 to 214 °C | N#Cc1nn(-c2c(Cl)cc(C(F)(F)F)cc2Cl)c(N)c1-c1cccc([N+](=O)[O-])c1
4 | 242 to 244 °C | N#Cc1nn(-c2c(Cl)cc(C(F)(F)F)cc2Cl)c(N)c1-c1ccc(Br)cc1
5 | 235 to 237 °C | N#Cc1nn(-c2c(Cl)cc(C(F)(F)F)cc2Cl)c(N)c1-c1ccc(Cl)cc1
6 | 222 to 223 °C | N#Cc1nn(-c2c(Cl)cc(C(F)(F)F)cc2Cl)c(N)c1-c1ccc(F)cc1
7 | 228 to 230 °C | N#Cc1nn(-c2c(Cl)cc(C(F)(F)F)cc2Cl)c(N)c1-c1cc(Cl)cc(Cl)c1
8 | 197 to 198 °C | N#Cc1nn(-c2c(Cl)cc(C(F)(F)F)cc2Cl)c(N)c1-c1ccc(F)c(Cl)c1
9 | 214 to 216 °C | COC(=O)c1cccc(-c2c(C#N)nn(-c3c(Cl)cc(C(F)(F)F)cc3Cl)c2N)c1
10 | 187 °C | N#Cc1nn(-c2c(Cl)cc(C(F)(F)F)cc2Cl)c(N)c1-c1cccc(N)c1
11 | 222 °C | COc1ccc(-c2c(C#N)nn(-c3c(Cl)cc(C(F)(F)F)cc3Cl)c2N)cc1
12 | 222 °C | N#Cc1nn(-c2c(Cl)cc(C(F)(F)F)cc2Cl)c(N)c1-c1ccc2c(c1)OCO2
13 | 250 °C | COc1ccc(-c2c(C#N)nn(-c3c(Cl)cc(C(F)(F)F)cc3Cl)c2N)cc1OC
14 | 164 °C | N#Cc1nn(-c2c(Cl)cc(C(F)(F)F)cc2Cl)c(N)c1-c1cccc(F)c1
15 | 161 to 162 °C | N#Cc1nn(-c2c(Cl)cc(C(F)(F)F)cc2Cl)c(N)c1-c1cccc(Cl)c1
16 | 197 °C | N#Cc1nn(-c2c(Cl)cc(C(F)(F)F)cc2Cl)c(N)c1-c1ccccc1F
17 | 193 °C | COc1ccccc1-c1c(C#N)nn(-c2c(Cl)cc(C(F)(F)F)cc2Cl)c1N
18 | 199 to 202 °C | Cc1ccccc1-c1c(C#N)nn(-c2c(Cl)cc(C(F)(F)F)cc2Cl)c1N

Row | melting point | SMILES
19 | 210 to 212 °C | N#Cc1nn(-c2c(Cl)cc(C(F)(F)F)cc2Cl)c(N)c1-c1ccccc1C(F)(F)F
20 | 192 to 193 °C | N#Cc1nn(-c2c(Cl)cc(C(F)(F)F)cc2Cl)c(N)c1-c1ccccc1Cl
21 | 208 °C | N#Cc1nn(-c2c(Cl)cc(C(F)(F)F)cc2Cl)c(N)c1-c1cccc2ccccc12
22 | 265 to 267 °C | N#Cc1nn(-c2c(Cl)cc(C(F)(F)F)cc2Cl)c(N)c1-c1cccnc1
23 | 266 to 268 °C (dec.) | N#Cc1nn(-c2c(Cl)cc(C(F)(F)F)cc2Cl)c(N)c1-c1ccncc1
24 | 206 to 207 °C | N#Cc1nn(-c2c(Cl)cc(C(F)(F)F)cc2Cl)c(N)c1-c1cccs1
25 | 210 to 212 °C | N#Cc1nn(-c2c(Cl)cc(C(F)(F)F)cc2Cl)c(N)c1-c1ccsc1
26 | 180 to 181 °C | N#Cc1nn(-c2c(Cl)cc(C(F)(F)F)cc2Cl)c(N)c1-c1ccoc1
27 | 222.6 °C | N#Cc1nn(-c2c(Cl)cccc2Cl)c(N)c1-c1ccco1
28 | 227 °C | N#Cc1nn(-c2c(Cl)cc(C(F)(F)F)cc2Cl)c(N)c1-c1cc(Br)no1
29 | 226 to 228 °C | Cc1nc(-c2c(C#N)nn(-c3c(Cl)cc(C(F)(F)F)cc3Cl)c2N)cs1
30 | 214 °C | N#Cc1nn(-c2c(Cl)cc(C(F)(F)F)cc2Cl)c(N)c1-c1ccc(Br)s1
31 | 162 to 163 °C | N#Cc1nn(-c2c(Cl)cc(C(F)(F)F)cc2Cl)c(N)c1-c1ccc(SC(F)(F)F)s1
32 | 279 °C | N#Cc1nn(-c2c(Cl)cc(C(F)(F)F)cc2Cl)c(N)c1-c1onc(Br)c1Br
33 | 141 to 142 °C | N#Cc1nn(-c2c(Cl)cc(C(F)(F)F)cc2Cl)c(N)c1-c1ccoc1[S+]([O-])C(F)(F)F (stereo not drawn)
34 | 148 to 151 °C | N#Cc1nn(-c2c(Cl)cc(C(F)(F)F)cc2Cl)c(N)c1-c1ccc(C(F)(F)F)o1
35 | 193 to 194 °C | N#Cc1nn(-c2c(Cl)cc(C(F)(F)F)cc2Cl)c(N)c1-c1cc(Cl)oc1Cl
36 | 178 to 179 °C | N#Cc1nn(-c2c(Cl)cc(C(F)(F)F)cc2Cl)c(N)c1C1CC1(Br)Br (stereo not drawn)
